Data taken from ChEMBL document CHEMBL5370659 (J Med Chem, 2023).
Values after ≈ are worked out from the molar mass of the structure shown. Active and inactive are the calls of the source. The rule behind the calls is not given here.

What was measured:
Mus musculus [1] = experiment: Effect on hedonic component behavior in C57BL/6N mouse at 10 mg/kg, po treated for 14 days by sucrose preference test; type: functional, organism-based; settings: time 14.0 day
[2] = target: Large neutral amino acids transporter small subunit 1 (Homo sapiens, UniProt Q01650); experiment: Inhibition of human LAT1 transfected in MDCK-II cells co-transfected with 4F2HC or GFP using [3H]-leucine as probe substrate at 20 uM incubated for 10 mins by scintillation counting analysis; type: cell-based
Sequence of Large neutral amino acids transporter small subunit 1 (Q01650 whole entry): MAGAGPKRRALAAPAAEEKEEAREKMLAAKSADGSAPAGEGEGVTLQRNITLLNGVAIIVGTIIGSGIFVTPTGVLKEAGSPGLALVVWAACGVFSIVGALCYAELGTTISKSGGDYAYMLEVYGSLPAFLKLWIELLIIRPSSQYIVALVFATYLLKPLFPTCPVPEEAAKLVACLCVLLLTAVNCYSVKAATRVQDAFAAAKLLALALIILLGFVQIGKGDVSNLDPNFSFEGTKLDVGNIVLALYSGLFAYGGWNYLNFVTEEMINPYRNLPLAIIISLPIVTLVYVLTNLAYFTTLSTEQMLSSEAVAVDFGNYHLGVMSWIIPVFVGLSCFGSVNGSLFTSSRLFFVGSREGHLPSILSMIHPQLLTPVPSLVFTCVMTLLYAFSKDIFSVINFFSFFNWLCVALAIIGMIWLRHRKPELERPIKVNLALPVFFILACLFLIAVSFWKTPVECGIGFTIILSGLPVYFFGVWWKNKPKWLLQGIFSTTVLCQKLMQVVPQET

[3] = Aqueous solubility of the compound in pH 7.4 PBS buffer by HPLC-UV analysis; type: physicochemical
[4] = Tlast in Sprague-Dawley rat at 50 mg/kg, po measured upto 1440 mins by LC-MS/MS analysis; type: ADME, organism-based; settings: in vivo, 24 h
[5] = AUC (0 to last) in CD-1 (ICR) mouse at 50 mg/kg, po measured upto 1440 mins by LC-MS/MS analysis; type: ADME, organism-based; design: time < 1440 min, dose 50 mg/kg, route po; settings: in vivo
[6] = Drug uptake in Sprague-Dawley rat lung at 20 mg/kg, po measured at 2 hrs by LC-MS/MS analysis; type: ADME, organism-based; settings: read-out: Drug uptake
[7] = Oral bioavailability in Sprague-Dawley rat at 20 mg/kg measured upto 1440 mins by LC-MS/MS analysis; type: ADME, organism-based; settings: in vivo
[8] = Plasma concentration in CD-1 (ICR) mouse at 50 mg/kg measured 2 hrs by LC-MS/MS analysis; type: ADME, organism-based
Mus musculus [9] = experiment: Effect on total travelled distance of C57BL/6N mouse at 100 mg/kg, po treated for 14 days by locomotor activity test; type: functional, organism-based; settings: time 14.0 day
[10] = Tmax in Sprague-Dawley rat at 50 mg/kg, po measured upto 1440 mins by LC-MS/MS analysis; type: ADME, organism-based; settings: in vivo
[11] = MRT (0 to infinitive) in Sprague-Dawley rat at 50 mg/kg, po measured upto 1440 mins by LC-MS/MS analysis; type: ADME, organism-based; settings: in vivo
[12] = Inhibition of BCRP in human Caco-2 cells seeded in polyethylene membranes assessed as permeation in presence or absence of E3S measured for 2 hrs by LC-MS/MS analysis based transporter assay; type: cell-based
[13] = Drug uptake in Sprague-Dawley rat lung at 50 mg/kg, po measured at 0.5 hrs by LC-MS/MS analysis; type: ADME, organism-based; settings: read-out: Drug uptake
Mus musculus [14] = experiment: Effect on hedonic component behavior in C57BL/6N mouse at 50 mg/kg, po treated for 14 days by sucrose preference test; type: functional, organism-based; settings: time 14.0 day
[15] = Apparent permeability across basal to apical side in human Caco-2 cells at pH 6.5/7.4 measured at 5 uM by LC-MS/MS analysis; type: ADME, cell-based; settings: Caco-2, pH 6.5
[16] = Brain homogenate binding in rat; type: ADME, tissue-based
[17] = Plasma concentration in Sprague-Dawley rat at 20 mg/kg, po measured at 0.5 hrs by LC-MS/MS analysis; type: ADME, organism-based
Cytochrome P450 2C19 = Cytochrome P450 2C19 (Homo sapiens, UniProt P33261); experiment: Inhibition of CYP2C19 in human liver microsome using S-mephenytoin as substrate measured upto 50 uM incubated for 10 mins followed by NADPH addition incubated for 10 mins by LC/MS/MS analysis; type: ADME; settings: microsomes, 20 min
Sequence of Cytochrome P450 2C19 (P33261 whole entry): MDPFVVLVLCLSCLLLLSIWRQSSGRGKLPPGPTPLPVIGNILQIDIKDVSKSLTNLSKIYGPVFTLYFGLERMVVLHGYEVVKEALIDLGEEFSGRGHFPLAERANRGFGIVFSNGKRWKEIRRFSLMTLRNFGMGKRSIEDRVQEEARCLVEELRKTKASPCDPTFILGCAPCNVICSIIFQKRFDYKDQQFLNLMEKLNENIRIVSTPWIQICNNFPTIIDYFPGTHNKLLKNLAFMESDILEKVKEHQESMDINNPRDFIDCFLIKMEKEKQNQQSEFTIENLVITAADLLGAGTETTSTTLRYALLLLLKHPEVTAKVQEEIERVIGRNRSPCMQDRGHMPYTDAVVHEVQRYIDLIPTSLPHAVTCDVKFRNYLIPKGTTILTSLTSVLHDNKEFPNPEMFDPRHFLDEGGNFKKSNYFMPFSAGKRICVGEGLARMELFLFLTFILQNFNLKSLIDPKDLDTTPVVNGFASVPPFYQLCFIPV

[18] = Half life in CD-1 (ICR) mouse at 50 mg/kg, po measured upto 1440 mins by LC-MS/MS analysis; type: ADME, organism-based; settings: in vivo
Cytochrome P450 3A4 = Cytochrome P450 3A4 (Homo sapiens, UniProt P08684); experiment: Inhibition of CYP3A4 in human liver microsome using midazolam as substrate measured upto 50 uM incubated for 10 mins followed by NADPH addition incubated for 10 mins by LC/MS/MS analysis; type: ADME; settings: microsomes, 20 min
Sequence of Cytochrome P450 3A4 (P08684 whole entry): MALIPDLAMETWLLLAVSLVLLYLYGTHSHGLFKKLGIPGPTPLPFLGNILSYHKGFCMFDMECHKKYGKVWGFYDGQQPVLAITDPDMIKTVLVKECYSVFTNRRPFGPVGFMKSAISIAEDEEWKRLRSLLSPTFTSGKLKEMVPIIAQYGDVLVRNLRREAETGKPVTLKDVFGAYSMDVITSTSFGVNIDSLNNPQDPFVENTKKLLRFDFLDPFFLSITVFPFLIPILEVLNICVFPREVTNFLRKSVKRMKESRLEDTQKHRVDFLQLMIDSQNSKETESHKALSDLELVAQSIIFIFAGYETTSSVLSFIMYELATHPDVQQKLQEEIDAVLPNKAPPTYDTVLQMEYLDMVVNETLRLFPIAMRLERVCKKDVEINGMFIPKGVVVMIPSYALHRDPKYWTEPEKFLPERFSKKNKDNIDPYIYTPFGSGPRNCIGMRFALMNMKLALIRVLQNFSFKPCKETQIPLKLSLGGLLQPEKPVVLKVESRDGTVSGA

Cytochrome P450 2C9 = Cytochrome P450 2C9 (Homo sapiens, UniProt P11712); experiment: Inhibition of CYP2C9 in human liver microsome using diclofenac as substrate measured upto 50 uM incubated for 10 mins followed by NADPH addition incubated for 10 mins by LC/MS/MS analysis; type: ADME; settings: microsomes, 20 min
Sequence of Cytochrome P450 2C9 (P11712 whole entry): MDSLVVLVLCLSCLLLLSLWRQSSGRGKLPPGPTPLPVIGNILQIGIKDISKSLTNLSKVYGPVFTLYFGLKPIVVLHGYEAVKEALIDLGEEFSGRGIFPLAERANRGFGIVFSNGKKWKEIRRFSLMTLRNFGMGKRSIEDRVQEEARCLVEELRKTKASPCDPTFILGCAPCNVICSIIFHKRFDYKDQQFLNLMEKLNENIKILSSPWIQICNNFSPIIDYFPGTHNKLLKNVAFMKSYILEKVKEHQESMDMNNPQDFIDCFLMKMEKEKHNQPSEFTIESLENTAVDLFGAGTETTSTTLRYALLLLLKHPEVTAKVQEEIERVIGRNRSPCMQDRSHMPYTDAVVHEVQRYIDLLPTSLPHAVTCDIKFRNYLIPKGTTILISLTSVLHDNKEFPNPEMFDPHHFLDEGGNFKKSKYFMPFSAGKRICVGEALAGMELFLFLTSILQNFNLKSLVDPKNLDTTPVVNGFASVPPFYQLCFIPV

[19] = Drug uptake in Sprague-Dawley rat brain at 50 mg/kg, po measured at 2 hrs by LC-MS/MS analysis; type: ADME, organism-based; settings: read-out: Drug uptake
[20] = Plasma concentration in CD-1 (ICR) mouse at 50 mg/kg measured 0.5 hrs by LC-MS/MS analysis; type: ADME, organism-based
[21] = target: T1, Tryptophan 5-hydroxylase 1 (Homo sapiens) (UniProt P17752); experiment: Binding affinity to […] (unknown origin) assessed as association rate constant by surface plasmon resonance analysis
T1 sequence (whole entry): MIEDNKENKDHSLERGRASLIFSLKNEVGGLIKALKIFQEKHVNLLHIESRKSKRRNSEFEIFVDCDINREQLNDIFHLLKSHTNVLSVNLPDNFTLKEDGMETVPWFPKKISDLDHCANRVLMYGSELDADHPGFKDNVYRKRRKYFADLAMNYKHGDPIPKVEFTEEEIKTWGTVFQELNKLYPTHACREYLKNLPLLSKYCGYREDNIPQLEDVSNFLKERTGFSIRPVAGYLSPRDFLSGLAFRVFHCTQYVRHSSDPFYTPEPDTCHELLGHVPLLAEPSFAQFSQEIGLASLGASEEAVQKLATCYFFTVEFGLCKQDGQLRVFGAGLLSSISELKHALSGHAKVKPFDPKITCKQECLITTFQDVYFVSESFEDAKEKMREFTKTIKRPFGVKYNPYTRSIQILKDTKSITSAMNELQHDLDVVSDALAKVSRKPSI

[22] = Half life in Sprague-Dawley rat at 20 mg/kg, po measured upto 1440 mins by LC-MS/MS analysis; type: ADME, organism-based; settings: in vivo
[23] = Apparent permeability across apical to basal side in human Caco-2 cells at pH 6.5/7.4 measured at 5 uM by LC-MS/MS analysis; type: ADME, cell-based; settings: Caco-2, pH 6.5
[24] = AUCExtra in Sprague-Dawley rat at 20 mg/kg, po measured upto 1440 mins by LC-MS/MS analysis; type: ADME, organism-based; settings: in vivo, 24 h
[25] = Plasma concentration in Sprague-Dawley rat at 50 mg/kg, po measured at 0.5 hrs by LC-MS/MS analysis; type: ADME, organism-based
[26] = Drug uptake in CD-1 (ICR) mouse brain at 50 mg/kg measured 0.5 hrs by LC-MS/MS analysis; type: ADME, organism-based; settings: read-out: Drug uptake
[27] = Cmax in Sprague-Dawley rat at 50 mg/kg, po measured upto 1440 mins by LC-MS/MS analysis; type: ADME, organism-based; design: time < 1440 min, dose 50 mg/kg, route po; settings: in vivo
[28] = Oral bioavailability in CD-1 (ICR) mouse at 50 mg/kg measured upto 1440 mins by LC-MS/MS analysis; type: ADME, organism-based; settings: in vivo
Mus musculus [29] = experiment: Effect on time spent in central zone of C57BL/6N mouse at 20 mg/kg, po treated for 14 days by locomotor activity test; type: functional, organism-based; settings: time 14.0 day
[30] = target: T2, Tryptophan 5-hydroxylase 1 (Homo sapiens, UniProt P17752); experiment: Inhibition of recombinant MBP-tagged full length human THP1 using L-Trp as substrate assessed as formation of 5-HTP by measuring fluorescent property
T2 sequence (P17752 whole entry): T1 sequence (whole entry)

[31] = Substrate activity at BCRP in human Caco-2 cells seeded in polyethylene membranes at 2 uM in presence or absence of E3S incubated for 2 hrs by LC-MS/MS analysis based substrate identification assay; type: ADME, cell-based; settings: caco-2, 2 h
[32] = AUMCExtra in Sprague-Dawley rat at 20 mg/kg, po measured upto 1440 mins by LC-MS/MS analysis; type: ADME, organism-based; settings: in vivo, 24 h

Question: For `CCn1c(=O)[nH]c(=O)c2c1nc(Cc1cn3cc(C)sc3n1)n2CC1COC1`, which Activity (Mus musculus [1]) is on record?
Answer: inactive

Question: What about the “inhibition (INH)” value [2] of the same molecule?
Answer: Not Active

Question: What about the solubility [3] of the same molecule?
Answer: 189 µM (≈ 75.7 µg/mL)

Question: And the Tlast [4]?
Answer: 24 h

Question: And the AUC(0-t) at 24 h [5]?
Answer: 8540 ng·h/mL

Question: And the concentration at 2 h [6]?
Answer: 76 ng/g

Question: What about the bioavailability [7] of the same molecule?
Answer: 33%

Question: And the concentration at 2 h [8]?
Answer: 1610 ng/mL

Question: What about the Activity (Mus musculus [9]) of the same molecule?
Answer: inactive

Question: And the Tmax [10]?
Answer: 0.83 h

Question: What about the MRT inf [11] of the same molecule?
Answer: 2.75 h

Question: And the IC50 [12]?
Answer: > 100000 nM

Question: And the concentration at 0.5 h [13]?
Answer: 3160 ng/g

Question: And the Activity (Mus musculus [14])?
Answer: inactive

Question: And the Papp B→A at 5 µM [15]?
Answer: 23 ×10⁻⁶ cm/s

Question: What about the Activity [16] of the same molecule?
Answer: 70%

Question: What about the concentration at 0.5 h [17] of the same molecule?
Answer: 1420 ng/mL

Question: And the “inhibition (INH)” value (Cytochrome P450 2C19)?
Answer: Not Active

Question: And the half-life [18]?
Answer: 1.76 h

Question: And the “inhibition (INH)” value (Cytochrome P450 3A4)?
Answer: Not Active

Question: And the “inhibition (INH)” value (Cytochrome P450 2C9)?
Answer: Not Active

Question: And the concentration at 2 h [19]?
Answer: 18 ng/g

Question: What about the concentration at 0.5 h [20] of the same molecule?
Answer: 7390 ng/mL

Question: And the Ka [21]?
Answer: 2.29 10^6/M/s

Question: And the half-life [22]?
Answer: 4.48 h

Question: And the Papp A→B at 5 µM [23]?
Answer: 0.14 ×10⁻⁶ cm/s

Question: What about the “%AUCextra” value [24] of the same molecule?
Answer: 0.84%

Question: What about the concentration at 0.5 h [25] of the same molecule?
Answer: 5950 ng/mL

Question: And the concentration at 0.5 h [26]?
Answer: 53 ng/g

Question: And the Cmax [27]?
Answer: 4100 ng/mL

Question: What about the bioavailability [28] of the same molecule?
Answer: 41.3%

Question: And the Activity (Mus musculus [29])?
Answer: inactive

Question: And the IC50 [30]?
Answer: 77 nM

Question: And the Activity [31]?
Answer: Not Active

Question: And the AUMC [32]?
Answer: 8.44%
